Assay results: patent US10736872B1, “Pharmaceutical mixture to treat statin induced vascular calcification” (priority 2019, dated 2020)

Columns and labels:
Assay type in all cases: cell-based
[1] = tested on: human aortic smooth muscle cells (AoSMC); experiment: Alkaline phosphatase activity assay in AoSMC; details: for increase of ALP activity / increase of ALP activity compared to control / increase in ALP activity compared to control: 1 mcM statin; for increase of ALP activity compared to control / increase in ALP activity compared to control: four days; for increase of ALP activity compared to control: FIG. 4A; for increase in ALP activity compared to control: pro-calcification condition (5 mM b-GP and 25 mcM forskolin), FIG. 4B; for decrease in ALP activity: 5 mM b-GP, 25 mcM forskolin
Method: Alkaline phosphatase activity assay in AoSMC: AoSMC were plated in 96 well plates and grown to confluent layer. […] Cells were washed with phosphate buffered saline (PBS) and supplemented with 50 mcl/well 25 mcg/ml 4-MUP (fluorescent ALP substrate, Sigma) in alkaline buffer (Sigma)/1% Triton X100 for 1 h at room temperature. Fluorescence was measured at 360/450 nm.
Statistical analysis: Results in figures are means±standard deviation (SD) from three or more repetitions from the most representative of at least two independent experiments. Differences between samples were estimated with a two-tailed Student's t-test using Excel software (Microsoft) and accepted as significant at p levels less than 0.05. The results in FIGS. 4A and 4B and FIGS. 5A and 5B are expressed as percentage of supplemented controls and presented as means±SD from six or more repetitions from the most representative of at least two independent experiments.
The calcification process of AoSMC was evaluated by the activity of cellular alkaline phosphatase (ALP). The study assessed the effects of Mixture 1 (micronutrient combination containing ascorbate) and ascorbate individually under standard (5% FBS/DMEM) and pro-calcification conditions (5% FBS/DMEM supplemented with 5 mM beta-glycerophosphate (b-GP) and 25 mcM forskolin—FIG. 4B).

[2] = tested on: human aortic smooth muscle cells (AoSMC); experiment: Calcium accumulation in extracellular matrix of AoSMC
Method: Cell viability was monitored with MTT assay. […] Plant-derived micronutrients suppress monocyte adhesion to cultured human aortic endothelial cell layer by modulating its extracellular matrix composition. J Cardiovasc Pharmacol 2008; 52:55-65. After four washes with PBS, ECM layers were solubilized by incubation in 0.6N HCl for 48 hours at 37° C. Calcium content in solubilized samples was measured with TECO Ca assay according to the manufacturer's protocol. […] The calcification process of AoSMC was evaluated by the activity of cellular alkaline phosphatase and calcium accumulation in the cell-produced extracellular matrix (FIG. 1).

[3] = tested on: human dermal fibroblasts (DF); experiment: Expression of osteoblast markers in human dermal fibroblasts (immunoassay); details: 100 mcM ascorbic acid, 5 mM beta-glycerophosphate and 25 mcM forskolin, 4 weeks, FIG. 3B
human aortic SMC = experiment: Expression of osteoblast markers in AoSMC (immunoassay); details: 100 mcM ascorbic acid, 5 mM beta-glycerophosphate and 25 mcM forskolin, 4 weeks, FIG. 3A
[4] = plain 5% FBS/DMEM, five days, FIG. 5A
[5] = pro-calcification conditions (5 mM b-GP, 25 mcM forskolin), five days, FIG. 5B
[6] = 300 mcM ascorbate, regular growth medium, FIG. 1
[7] = 100 mcM ascorbate in the presence of simvastatin, without forskolin, FIG. 2A

## CC[C@H](C)C(=O)O[C@H]1C[C@H](O)C=C2C=C[C@H](C)[C@H](CC[C@@H](O)C[C@@H](O)CC(=O)O)[C@H]21 [pravastatin]
[1]; [4]
  increase of ALP activity: 60%
[1]; plain 5% FBS/DMEM
  increase of ALP activity compared to control: 39%
[1]
  increase in ALP activity compared to control: 25%
[1]; [5]
  increase of ALP activity: 25%

## CCC(C)(C)C(=O)O[C@H]1C[C@@H](C)C=C2C=C[C@H](C)[C@H](CC[C@@H]3C[C@@H](O)CC(=O)O3)[C@H]21 [simvastatin]
[1]; [4]
  increase of ALP activity: 57%
[1]
  increase in ALP activity compared to control: 22%
[1]; [5]
  increase of ALP activity: 30%
[2]; simvastatin, without forskolin, FIG. 2A
  increase of calcium accumulation in AoSMC layers: 23%

## CC[C@H](C)C(=O)O[C@H]1CCC=C2C=C[C@H](C)[C@H](CC[C@@H]3C[C@@H](O)CC(=O)O3)[C@H]21 [mevastatin]
[1]; [4]
  increase of ALP activity: 61%
[1]; plain 5% FBS/DMEM
  increase of ALP activity compared to control: 25%
[1]
  increase in ALP activity compared to control: 39%
[1]; [5]
  increase of ALP activity: 41%
[2]; 1 mM mevastatin, with 25 mcM forskolin, FIG. 2B, control 1.35 mcg/well
  calcium accumulation: 1.8 mcg/well

## O=C1O[C@H]([C@@H](O)CO)C(O)=C1O [ascorbic acid, L-ascorbic acid]
[1]; 300 mcM ascorbate in the presence of 1 mcM simvastatin, plain 5% FBS/DMEM, five days, FIG. 5A
  ALP activity after addition of ascorbate: decreased to control level
[1]; 300 mcM ascorbate, mevastatin containing samples, five days, FIG. 5B
  decrease in ALP activity: 37%
[1]; 300 mcM ascorbate, pravastatin containing samples, five days, FIG. 5B
  decrease in ALP activity: 24%
[1]; [6]
  decrease of alkaline phosphatase activity: 80%
[1]; 300 mcM ascorbate, simvastatin containing samples, five days, FIG. 5B
  decrease in ALP activity: 36%
[1]; 300 mcM ascorbic acid in the absence of statins, five days, FIG. 5B
  decrease in ALP activity: 29%
[1]; 300 mcM ascorbic acid in the presence of 1 mcM mevastatin, plain 5% FBS/DMEM, five days, FIG. 5A
  decrease of statin-stimulated ALP activity: 29%
[1]; 300 mcM ascorbic acid in the presence of 1 mcM pravastatin, plain 5% FBS/DMEM, five days, FIG. 5A
  decrease of statin-stimulated ALP activity: 30%
[1]; 300 mcM ascorbic acid, no statin, plain 5% FBS/DMEM, five days, FIG. 5A
  decrease of alkaline phosphatase activity: about 43%
[3]
  expression of all tested osteogenic markers: significantly reduced
Human aortic SMC
  expression of all tested osteogenic markers: significantly reduced
[2]; 100 mcM ascorbate added in the presence of mevastatin, with forskolin, FIG. 2B, to below control values
  decrease of calcium accumulation: 19%
[2]; [7]
  accumulated calcium: 0.2 mcg/well
  decrease of accumulated calcium: 54%
[2]; [6]
  decrease of extracellular Ca accumulation by AoSMC: 20%
